This is an account of results in patent US9751869B2, “LXR modulators” (BRISTOL-MYERS SQUIBB COMPANY, priority 2013, dated 2017).

By EC50 is commonly meant the concentration at which the effect is half-maximal.

The structures appear in SMILES notation.

The target of this assay is T1, LXRβ (Homo sapiens, UniProt P55055).
T1 construct: Co-transfection expression plasmids, comprising full-length LXRα (pCMX-h LXRα or LXRβ (pCMX-hLXRβ)); expressed in transfected cells; host or cells: CV-1 African green monkey kidney cells, transient transfection with pCMX-hLXRβ
T1 sequence (P55055 1-460): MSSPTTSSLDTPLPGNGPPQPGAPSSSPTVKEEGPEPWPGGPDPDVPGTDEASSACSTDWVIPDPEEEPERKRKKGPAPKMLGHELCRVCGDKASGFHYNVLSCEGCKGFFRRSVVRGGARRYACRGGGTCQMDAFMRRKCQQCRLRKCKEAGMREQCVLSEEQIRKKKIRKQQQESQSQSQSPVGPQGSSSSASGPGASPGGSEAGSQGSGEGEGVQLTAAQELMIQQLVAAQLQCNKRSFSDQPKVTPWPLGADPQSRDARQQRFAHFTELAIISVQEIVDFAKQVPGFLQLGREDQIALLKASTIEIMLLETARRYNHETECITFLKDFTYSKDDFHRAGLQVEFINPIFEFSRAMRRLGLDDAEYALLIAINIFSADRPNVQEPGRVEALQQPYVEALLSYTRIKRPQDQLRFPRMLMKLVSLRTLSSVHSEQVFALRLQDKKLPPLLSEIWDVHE
T1 sequence (P19793 1-462 partner): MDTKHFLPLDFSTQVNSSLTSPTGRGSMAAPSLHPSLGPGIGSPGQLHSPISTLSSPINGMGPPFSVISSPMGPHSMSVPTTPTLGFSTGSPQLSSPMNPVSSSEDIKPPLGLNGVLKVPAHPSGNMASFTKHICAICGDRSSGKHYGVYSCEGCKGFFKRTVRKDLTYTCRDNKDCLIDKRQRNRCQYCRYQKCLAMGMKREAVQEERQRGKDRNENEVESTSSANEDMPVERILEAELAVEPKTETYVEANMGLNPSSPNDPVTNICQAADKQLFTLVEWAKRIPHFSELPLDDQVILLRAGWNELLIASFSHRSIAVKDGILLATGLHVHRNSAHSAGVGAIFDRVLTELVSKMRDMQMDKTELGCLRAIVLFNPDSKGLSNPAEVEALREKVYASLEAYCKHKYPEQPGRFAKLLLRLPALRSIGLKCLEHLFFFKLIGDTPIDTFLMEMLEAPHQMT
Description: LXR/LXRE co-transfection assay (luciferase reporter) in CV-1 cells, LXRβ. The class given is cell-based. The note with it: for EC50: CV-1 cells transfected with pCMX-hLXRβ and LXREx1-Tk-Luciferase, 20 hours incubation, read-out: LXRbeta agonism EC50; for Emax: read-out: LXRbeta % EFFICACY
Put shortly:
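Luciferase read-out after 20 h compound treatment at 37 °C of CV-1 cells carrying transfected hLXRβ plus one-copy LXRE reporter, endogenous RXR partnering. Sigmoidal fit of 10-point half-log curves (4 wells each) gave EC50; % efficacy versus maximal response of the propionamide reference agonist.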
Background: A reporter such as luciferase makes a cellular process visible.

[1] abbreviates: CV-1 cells, relative to maximum response of high control N-(3-((4-fluorophenyl)-(naphthalene-2-sulfonyl)amino)propyl)-2,2-dimethylpropionamide.

As for `Cc1nc(-c2ccc(OC(F)(F)F)cc2)c(-c2cc(-c3cc(F)c(CO)c(S(C)(=O)=O)c3)ccc2-n2ccc(C(C)(F)F)n2)o1` [Example 313, (4′-(3-(1,1-difluoroethyl)-1H-pyrazol-1-yl)-3-fluoro-3′-(2-methyl-4-(4-(trifluoromethoxy)phenyl)oxazol-5-yl)-5-(methylsulfonyl)-[1,1′-biphenyl]-4-yl)methanol], the EC50 was 20 nM. Further, the Emax under setting [1] was determined as 59%.

On to `Cc1nc(-c2ccc3c(c2)OC(F)(F)O3)c(-c2cc(-c3cc(F)c(CO)c(S(C)(=O)=O)c3)ccc2-c2cc(C(C)(C)C#N)nn2C)o1` [Example 97, 2-(5-(3-(4-(2,2-difluorobenzo[d][1,3]dioxol-5-yl)-2-methyloxazol-5-yl)-3′-fluoro-4′-(hydroxymethyl)-5′-(methylsulfonyl)biphenyl-4-yl)-1-methyl-1H-pyrazol-3-yl)-2-methylpropanenitrile], for which the EC50 worked out at 48 nM. The Emax under setting [1] worked out at 82%.

Take `CNS(=O)(=O)c1cccc(-c2ccc(-n3cc(Cl)c(C(F)(F)F)n3)c(-c3oc(C)nc3-c3cnc(OC)nc3)c2)c1` [Example 445, 4′-(4-chloro-3-(trifluoromethyl)-1H-pyrazol-1-yl)-3′-(4-(2-methoxypyrimidin-5-yl)-2-methyloxazol-5-yl)-N-methyl-[1,1′-biphenyl]-3-sulfonamide]: the EC50 came out at 170 nM. Besides, the Emax under setting [1] came to 63%.

As to `Cc1nc(-c2ccc(OC(F)F)cc2)c(-c2cc(-c3cc(F)c(CO)c(S(C)(=O)=O)c3)ccc2-n2ccc(C(F)(F)F)n2)o1` [Example 436, (3′-(4-(4-(difluoromethoxy)phenyl)-2-methyloxazol-5-yl)-3-fluoro-5-(methylsulfonyl)-4′-(3-(trifluoromethyl)-1H-pyrazol-1-yl)-[1,1′-biphenyl]-4-yl)methanol], the EC50 came out at 6 nM. Also, under setting [1], the Emax was determined as 61%.

For `Cc1nc(-c2ccc3c(c2)OC(F)(F)O3)c(-c2cc(-c3cccc(S(C)(=O)=O)c3)ccc2-c2cc(C(C)C#N)nn2C)o1` (stereo not shown) [Example 116, 2-(5-(3-(4-(2,2-difluorobenzo[d][1,3]dioxol-5-yl)-2-methyloxazol-5-yl)-3′-(methylsulfonyl)-[1,1′-biphenyl]-4-yl)-1-methyl-1H-pyrazol-3-yl)propanenitrile], the EC50 came out at 26 nM. Further, the “LXRbeta % EFFICACY” value under setting [1] came to 99%.

As for `Cc1nc(-c2cc(-c3cccc(S(C)(=O)=O)c3)ccc2-n2nc(C(F)(F)F)cc2C)c(-c2ccc(OC(F)(F)F)cc2)o1` [Example 385, 2-methyl-4-(4-(5-methyl-3-(trifluoromethyl)-1H-pyrazol-1-yl)-3′-(methylsulfonyl)biphenyl-3-yl)-5-(4-(trifluoromethoxy)phenyl) oxazole], the EC50 was found to be 42 nM. Moreover, under setting [1], the Emax came to 71%.

Take `Cc1nc(-c2ccc3c(c2)OC(F)(F)O3)c(-c2cc(-c3cc(F)c(CO)c(S(C)(=O)=O)c3)ccc2-c2cc(C(=O)NC(C)(C)C)nn2C)o1` [Example 114, N-(tert-butyl)-5-(3-(4-(2,2-difluorobenzo[d][1,3]dioxol-5-yl)-2-methyloxazol-5-yl)-3′-fluoro-4′-(hydroxymethyl)-5′-(methylsulfonyl)-[1,1′-biphenyl]-4-yl)-1-methyl-1H-pyrazole-3-carboxamide]: the EC50 is 273 nM. For the same molecule, the Emax under setting [1] is 28%.

`Cc1nc(-c2ccc3c(c2)OC(F)(F)O3)c(-c2cc(-c3cccc(S(C)(=O)=O)c3)ccc2-c2cc(C(C)(C)C(N)=O)nn2C)o1` [Example 96, 2-(5-(3-(4-(2,2-difluorobenzo[d][1,3]dioxol-5-yl)-2-methyloxazol-5-yl)-3′-(methylsulfonyl)biphenyl-4-yl)-1-methyl-1H-pyrazol-3-yl)-2-methylpropanamide]: the EC50 came out at 126 nM. Moreover, under setting [1], the Emax was determined as 61%.

For the molecule `Cc1cc(C(F)(F)F)nn1-c1ccc(-c2cccc(S(C)(=O)=O)c2)cc1-n1nncc1-c1ccc(OC(F)(F)F)cc1` [Example 300, 1-{3′-(methylsulfonyl)-4-[5-methyl-3-(trifluoromethyl)-1H-pyrazol-1-yl]biphenyl-3-yl}-5-{4-[(trifluoromethyl)oxy]phenyl}-1H-1,2,3-triazole], the EC50 was found to be 153 nM. The Emax under setting [1] worked out at 99%.

Take `CCC(F)(F)c1cc(-c2ccc(-c3cc(F)c(CO)c(S(C)(=O)=O)c3)cc2-n2nncc2-c2ccc(OC(F)(F)F)cc2)n(C)n1` [Example 2, (4′-(3-(1,1-difluoropropyl)-1-methyl-1H-pyrazol-5-yl)-3-fluoro-5-(methylsulfonyl)-3′-(5-(4-(trifluoromethoxy)phenyl)-1H-1,2,3-triazol-1-yl)biphenyl-4-yl)methanol]: the EC50 came to 26 nM. Moreover, the Emax under setting [1] was determined as 89%.

Turning to `Cc1nc(-c2cc(-c3cc(F)c(CO)c(S(C)(=O)=O)c3)ccc2-c2cc(C(C)(C)CO)nn2C)c(-c2ccc3c(c2)OC(F)(F)O3)o1` [Example 62, 2-(5-(3-(5-(2,2-difluorobenzo[d][1,3]dioxol-5-yl)-2-methyloxazol-4-yl)-3′-fluoro-4′-(hydroxymethyl)-5′-(methylsulfonyl)biphenyl-4-yl)-1-methyl-1H-pyrazol-3-yl)-2-methylpropan-1-ol], the EC50 amounted to 30 nM. The Emax under setting [1] stood at 72%.

Regarding `CCC(F)(F)c1cc(-c2ccc(-c3cccc(S(C)(=O)=O)c3)cc2-n2nncc2-c2ccc(OC(F)(F)F)cc2)n(C)n1` [Example 9, 1-(4-(3-(1,1-difluoropropyl)-1-methyl-1H-pyrazol-5-yl)-3′-(methylsulfonyl)biphenyl-3-yl)-5-(4-(trifluoromethoxy)phenyl)-1H-1,2,3-triazole], the EC50 worked out at 70 nM. Moreover, the Emax under setting [1] turned out to be 82%.

Turning to `Cc1nc(-c2ccc3c(c2)OC(F)(F)O3)c(-c2cc(-c3cccc(S(C)(=O)=O)c3)ccc2-c2cc(C(C)OC(N)=O)nn2C)o1` (stereo not shown) [Example 129, 1-(5-(3-(4-(2,2-difluorobenzo[d][1,3]dioxol-5-yl)-2-methyloxazol-5-yl)-3′-(methylsulfonyl)-[1,1′-biphenyl]-4-yl)-1-methyl-1H-pyrazol-3-yl)ethyl carbamate], the EC50 was 87 nM. In addition, the Emax under setting [1] came to 48%.

For the molecule `Cc1nc(-c2ccc(OC(F)F)c(F)c2)c(-c2cc(-c3cc(F)c(CO)c(S(C)(=O)=O)c3)ccc2-c2cc(C(F)(F)C(=O)N(C)C)nn2C)o1` [Example 79, 2-(5-(3-(4-(4-(difluoromethoxy)-3-fluorophenyl)-2-methyloxazol-5-yl)-3′-fluoro-4′-(hydroxymethyl)-5′-(methylsulfonyl)biphenyl-4-yl)-1-methyl-1H-pyrazol-3-yl)-2,2-difluoro-N,N-dimethylacetamide], the EC50 is 17 nM. For the same molecule, under setting [1], the Emax came out at 87%.

Take `Cc1nc(-c2ccc(OC(F)F)c(F)c2)c(-c2cc(-c3cc(F)c(CO)c(S(C)(=O)=O)c3)ccc2-c2cc(C(F)(F)CO)nn2C)o1` [Example 77, 2-(5-(3-(4-(4-(difluoromethoxy)-3-fluorophenyl)-2-methyloxazol-5-yl)-3′-fluoro-4′-(hydroxymethyl)-5′-(methylsulfonyl)biphenyl-4-yl)-1-methyl-1H-pyrazol-3-yl)-2,2-difluoroethanol]: the EC50 is 30 nM. Also, under setting [1], the Emax worked out at 86%.

Turning to `Cn1nc(C(F)(F)CNCCO)cc1-c1ccc(-c2cccc(S(C)(=O)=O)c2)cc1-n1nncc1-c1ccc(OC(F)(F)F)cc1` [Example 29, 2-((2,2-difluoro-2-(1-methyl-5-(3′-(methylsulfonyl)-3-(5-(4-(trifluoromethoxy)phenyl)-1H-1,2,3-triazol-1-yl)-[1,1′-biphenyl]-4-yl)-1H-pyrazol-3-yl)ethyl)amino)ethanol], the EC50 came to 1230 nM. Under setting [1], the Emax turned out to be 80%.

For the molecule `Cc1nc(-c2ccc(OC(F)(F)F)cc2)c(-c2cc(-c3cc(F)cc(S(C)(=O)=O)c3)ccc2-n2ccc(C(F)(F)F)n2)o1` [Example 334, 5-(3′-fluoro-5′-(methylsulfonyl)-4-(3-(trifluoromethyl)-1H-pyrazol-1-yl)biphenyl-3-yl)-2-methyl-4-(4-(trifluoromethoxy)phenyl)oxazole], the EC50 is 305 nM. The Emax under setting [1] was 80%.
